Measured values reported in publication PMC10787398, “Simultaneous determination of colistin sulfate and tigecycline in human plasma by liquid chromatography-tandem mass spectrometry method” (BMC Chemistry, 2024).
Where a name gives a salt, the structure may show the parent alone. Where a SMILES comes first, the peptide text is derived from it. Bridges are numbered along the chain shown (N, C = ends). [ ]: non-standard residue; d: D form. The star is where a group is joined. X1 = CC[C@H](C)CCCCC(=O)*; Dab = NCC[C@H](N)C(=O)O

Key:
[1] = Stability of analytes in spiked plasma samples under storage conditions; type: in vitro ADME, human; conditions: for Measured value, Stored at -80℃ for 7 days / Measured value, Automatic sampler 15℃ for 24 h / Measured value, Freeze-thaw for 3 cycles / Measured value, At 4℃ for 12 h / Measured value, At room temperature for 6 h: HPLC-MS/MS, n = 5; for Measured value, Automatic sampler 15℃ for 24 h: automatic sampler 15 ℃ 24 h; for Measured value, Freeze-thaw for 3 cycles: frozen at -80 °C and thawed at room temperature; for Measured value, At 4℃ for 12 h: refrigerator 4 °C 12 h
Procedure: Plasma samples with low, medium, and high mass concentrations were prepared (the mass concentrations of colistin sulfate were 0.1, 1, and 8 µg/mL, respectively, and those of tigecycline were 0.05, 0.5, and 4 µg/mL, respectively). Five replicates of each concentration were prepared and placed in a refrigerator at 4 °C for 12 h, at room temperature for 6 h, and in an automatic sampler at 15 ℃ for 24 h. The samples were, on three occasions, frozen at − 80 °C and thawed at room temperature, and then placed in a − 80 °C refrigerator for seven days. The concentrations and RSDs of colistin sulfate and tigecycline in the plasma samples were calculated based on the accompanying standard curve of the day to evaluate their stabilities.

[2] = within 8 h after administration; no reference given; cited from earlier work
Text: The PK process of the drug in the body is often affected in patients with serious diseases accompanied by microcirculation disorders, hypoproteinemia, liver and kidney insufficiency, and other special pathophysiological states. Large fluctuations in plasma drug concentrations are commonly observed in these cases. TDM can aid in the optimization of administration dosage, individualized dosing, and anti-infective efficacy. Since colistin sulfate has not undergone modern drug development procedures, the current pharmacokinetic data remain unclear, and the plasma concentration is closely correlate ...

[3] = Plasma trough and peak concentrations in patients on intravenous polymyxin and tigecycline (HPLC-MS/MS); conditions: human, in vivo, iv, iv
Text: Plasma samples were collected from patients receiving simultaneous intravenous polymyxin and tigecycline treatment. Inclusion criteria: ① Patients receiving simultaneous intravenous polymyxin and tigecycline treatment; ② Age ≥ 18 years; ③ Patients who consent to the monitoring of polymyxin and tigecycline blood drug concentrations during treatment. Exclusion criteria: ① Pregnant or lactating women; ② Treatment duration < 3 days; ③ Local administration; ④ Blood dialysis treatment. Once the blood drug concentration reached a steady state, 3 ml of venous blood was collected before and 30 min after the seventh administration to measure the peak and trough concentrations. This study was conducted with approval from the Ethics Committee of Second Hospital of Hebei Medical University (2020-R551). This study was conducted in accordance with the declaration of Helsinki.
Two hundred microliters of the plasma sample were adopted, with 20 µL of the internal standard added, and it was vortexed for 20 s. Two hundred microliters of 5% trichloroacetic acid was added for acidification and vortexed for 10 s. Two hundred microliters of methanol was added for extraction, vortexed for 2 min, and centrifuged at 10,900 r/min for 5 min. Two hundred microliters of the supernatant were aspirated into the injection bottle, and 10 µL of the sample was injected for the HPLC–MS/MS analysis.
All patients received an initial dose of 100 mg and a maintenance dose of 50 mg q12h for tigecycline. Three milliliters of venous blood were collected before and after the seventh administration to measure the peak and trough concentrations of the drugs.

[4] = plasma QC high, nominal colistin sulfate 8 µg/mL, tigecycline 4 µg/mL
[5] = plasma QC low, nominal colistin sulfate 0.1 µg/mL, tigecycline 0.05 µg/mL
[6] = plasma QC medium, nominal colistin sulfate 1 µg/mL, tigecycline 0.5 µg/mL

CC[C@H](C)CCCCC(=O)N[C@@H](CCN)C(=O)N[C@H](C(=O)N[C@@H](CCN)C(=O)N[C@H]1CCNC(=O)[C@H]([C@@H](C)O)NC(=O)[C@H](CCN)NC(=O)[C@H](CCN)NC(=O)[C@H](CC(C)C)NC(=O)[C@@H](CC(C)C)NC(=O)[C@H](CCN)NC1=O)[C@@H](C)O [Colistin sulfate, colistin sulfate] (X1-[Dab]T[Dab][Dab][Dab][dL]L[Dab][Dab]T; lactam 4-C)
Measured value, Stored at -80℃ for 7 days ([1]; plasma QC high, nominal colistin sulfate 8 µg/mL, tigecycline 4 µg/mL, -80 °C 7 days): 8.30 ± 0.32 µg/mL
Measured value, Automatic sampler 15℃ for 24 h [1, 4]: 8.17 ± 0.19 µg/mL
Measured value, Freeze-thaw for 3 cycles [1, 4]: 8.70 ± 0.54 µg/mL
Measured value, At 4℃ for 12 h [1, 4]: 8.23 ± 0.61 µg/mL
Measured value, At room temperature for 6 h ([1]; plasma QC high, nominal colistin sulfate 8 µg/mL, tigecycline 4 µg/mL, room temperature 6 h): 8.26 ± 0.30 µg/mL
Measured value, Stored at -80℃ for 7 days ([1]; plasma QC low, nominal colistin sulfate 0.1 µg/mL, tigecycline 0.05 µg/mL, -80 °C 7 days): 0.10 ± 0.00 µg/mL
Measured value, Automatic sampler 15℃ for 24 h [1, 5]: 0.10 ± 0.00 µg/mL
Measured value, Freeze-thaw for 3 cycles [1, 5]: 0.09 ± 0.00 µg/mL
Measured value, At 4℃ for 12 h [1, 5]: 0.09 ± 0.01 µg/mL
Measured value, At room temperature for 6 h ([1]; plasma QC low, nominal colistin sulfate 0.1 µg/mL, tigecycline 0.05 µg/mL, room temperature 6 h): 0.10 ± 0.00 µg/mL
Measured value, Stored at -80℃ for 7 days ([1]; plasma QC medium, nominal colistin sulfate 1 µg/mL, tigecycline 0.5 µg/mL, -80 °C 7 days): 0.98 ± 0.09 µg/mL
Measured value, Automatic sampler 15℃ for 24 h [1, 6]: 0.93 ± 0.01 µg/mL
Measured value, Freeze-thaw for 3 cycles [1, 6]: 1.04 ± 0.04 µg/mL
Measured value, At 4℃ for 12 h [1, 6]: 0.93 ± 0.04 µg/mL
Measured value, At room temperature for 6 h ([1]; plasma QC medium, nominal colistin sulfate 1 µg/mL, tigecycline 0.5 µg/mL, room temperature 6 h): 1.00 ± 0.05 µg/mL
stability under the above conditions ([1]; plasma samples, 4 °C 12 h, room temperature 6 h, autosampler 15 ℃ 24 h, 3 freeze-thaw cycles, -80 °C 7 days): good stability
administered dose excreted in the urine [2]: 40%
level at 0.5 h ([3]; both, peak concentration of colistin sulfate, range over patients, 12 adult patients, steady state, after 7th administration, plasma, HPLC-MS/MS): 890 to 4560 ng/mL
Cmax ([3]; female, 500000 IU): 890 ng/mL
